Here are results for 4 compounds from ChEMBL document CHEMBL1144791, “Facile synthesis of substituted trans-2-arylcyclopropylamine inhibitors of the human histone demethylase LSD1 and monoamine oxidases A and B” (Bioorg Med Chem Lett, 2008).

A value given as a limit tells only on which side of the number the result lay.

Data set [1] deals with MAO-B (amine oxidase [flavin-containing] B), Homo sapiens (UniProt P27338). Description: Ratio of Kinact to KI of human MAOB.
The target of data set [2] is MAO-A (amine oxidase [flavin-containing] A), Homo sapiens (UniProt P21397). Description: Ratio of Kinact to KI of human MAOA.
Chain of MAO-A (amine oxidase [flavin-containing] A), Homo sapiens (P21397 whole entry, looked up): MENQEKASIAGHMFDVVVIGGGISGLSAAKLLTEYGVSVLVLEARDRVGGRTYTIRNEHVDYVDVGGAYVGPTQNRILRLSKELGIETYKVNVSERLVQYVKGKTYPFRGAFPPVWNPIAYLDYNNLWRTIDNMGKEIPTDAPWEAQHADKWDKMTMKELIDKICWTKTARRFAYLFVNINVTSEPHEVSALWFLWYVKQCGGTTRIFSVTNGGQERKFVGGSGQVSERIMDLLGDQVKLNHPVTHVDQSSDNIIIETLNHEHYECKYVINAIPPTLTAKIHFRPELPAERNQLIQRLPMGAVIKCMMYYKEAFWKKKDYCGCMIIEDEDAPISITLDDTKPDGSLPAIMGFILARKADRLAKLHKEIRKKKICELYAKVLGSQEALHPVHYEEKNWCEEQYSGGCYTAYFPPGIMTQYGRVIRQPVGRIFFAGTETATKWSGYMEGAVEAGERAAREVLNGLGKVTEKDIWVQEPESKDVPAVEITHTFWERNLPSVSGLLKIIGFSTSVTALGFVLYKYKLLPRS
Data set [3] in a line: Inhibition of human MAOA. Particulars: read-out: Kinact.
Data set [4] can be described thus: Inhibition of human MAOB. The note with it: read-out: Kinact.

Chain of MAO-B (amine oxidase [flavin-containing] B), Homo sapiens (P27338 whole entry, looked up): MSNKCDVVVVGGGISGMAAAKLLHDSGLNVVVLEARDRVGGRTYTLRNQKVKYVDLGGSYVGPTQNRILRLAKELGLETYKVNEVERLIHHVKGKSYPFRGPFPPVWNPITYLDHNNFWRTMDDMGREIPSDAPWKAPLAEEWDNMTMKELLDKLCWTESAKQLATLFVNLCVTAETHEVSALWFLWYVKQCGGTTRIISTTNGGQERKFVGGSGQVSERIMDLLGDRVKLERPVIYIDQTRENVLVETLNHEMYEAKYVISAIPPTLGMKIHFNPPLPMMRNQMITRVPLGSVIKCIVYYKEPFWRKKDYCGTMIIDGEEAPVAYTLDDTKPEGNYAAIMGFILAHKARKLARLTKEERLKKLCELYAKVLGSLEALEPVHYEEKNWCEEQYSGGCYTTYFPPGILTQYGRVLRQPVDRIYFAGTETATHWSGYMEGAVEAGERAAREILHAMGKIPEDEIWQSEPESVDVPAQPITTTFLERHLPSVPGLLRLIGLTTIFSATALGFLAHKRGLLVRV

For orientation: kinact/KI means the second-order rate constant of inactivation. For the compound `NC1CC1(c1ccccc1)c1ccccc1` (stereo not drawn), the kinact/KI in data set [1] was less than 1.5 M⁻¹ s⁻¹; in data set [2], less than 14 M⁻¹ s⁻¹.
On to `N[C@@H]1C[C@H]1c1ccsc1` (relative stereo), for which the kinact/KI in data set [1] is 22.3 M⁻¹ s⁻¹; in data set [2] it was less than 18 M⁻¹ s⁻¹. The KI (inactivation) in data set [3] was 1550 µM.
For the compound `N[C@@H]1C[C@H]1c1ccc(C(F)(F)F)cc1` (relative stereo), the kinact/KI in data set [1] came to 7510 M⁻¹ s⁻¹; in data set [2] it was 2860 M⁻¹ s⁻¹. Moreover, the KI (inactivation) in data set [4] stood at 29.8 µM; in data set [3], 7.7 µM.
For `N[C@@H]1C[C@H]1c1cccc2ccccc12` (relative stereo) the same measures were 4840 M⁻¹ s⁻¹, 362 M⁻¹ s⁻¹, 38.7 µM and 9.8 µM.
